Paper PMC6211256, “From cycloheptathiophene-3-carboxamide to oxazinone-based derivatives as allosteric HIV-1 ribonuclease H inhibitors” (Journal of Enzyme Inhibition and Medicinal Chemistry, 2018)
“Also recorded” adds a separate entry of the source. Read-outs that look alike come from different tables or passages of the source.

Experiments:
[1] = target: T1, HIV-1 RT-associated RNase H (Human immunodeficiency virus type 1 group M subtype B, UniProt P04585); set-up: method as in PMID 26990134; settings: previously reported value; read-out: IC50, RNase H inhibition; cited from earlier work
[2] = target: T2, HIV-1 RT-associated RNA dependent DNA polymerase (RDDP) (Human immunodeficiency virus type 1 group M subtype B, UniProt P04585); set-up: method as in PMID 26990134; settings: RDDP vs RNase H; cited from earlier work
[3] = target: T1, HIV-1 RT-associated RNase H; assay: HIV-1 DNA polymerase-independent RNase H activity determination (wt RT); assay type: biochemical
Protocol: (§1) Heterodimeric RT was expressed essentially as described[19]^,[39]. Using a BioLogic LP system (Biorad), using a combination of immobilised metal affinity (Ni-Sepharose high performance, Healthcare Lifescience) and ion exchange chromatography (Hi-trap heparin HP GE). The protein was dialysed and stored in buffer containing 50 mM Tris HCl pH 7.0, 25 mM NaCl, 1 mM EDTA, and 50% glycerol. Catalytic activities and protein concentrations were determined. Enzyme-containing fractions were pooled and aliquots were stored at −80 °C.
(§2) HIV RT-associated RNase H activity was measured as described[40] using as a control the RNase H selective inhibitor RDS1759[9], and using different amount of enzymes according to a linear range of dose-response curve: 20 ng of WT RT; 75 ng V108F RT; 50 ng Y188A RT; 30 ng W229A RT; 100 ng A502F RT.

[4] = Cytotoxicity in MT-4 cells; settings: human
[5] = target: T2, HIV-1 RT-associated RNA dependent DNA polymerase (RDDP); assay: HIV-1 RNA-dependent DNA polymerase activity determination (wt RT); assay type: biochemical
Protocol: as §1
(§3) RNA-dependent DNA polymerase (RDDP) activity was measured as described[17] using and different amounts of enzymes according to a linear range of dose-response curve: 6 ng wt RT; 19 ng V108F RT; 45 ng Y188A RT; 30 ng W229A RT; A502F RT. The Yonetani-Theorell analysis was performed as previously described[41]^,[42].

[6] = target: HIV-1 RT wild type RNA-dependent DNA polymerase activity (Human immunodeficiency virus type 1 group M subtype B, UniProt P04585); assay: Yonetani-Theorell analysis of combination with EFV on RDDP function; assay type: biochemical; settings: compound 22 at 10 and 30 μM with EFV
Protocol: as §3

A502F RT (RDDP function) = A502F RT (RDDP function) (Human immunodeficiency virus type 1 group M subtype B, UniProt P04585, A1089F); assay: RDDP activity of A502F mutated RT; assay type: biochemical, HIV-1; settings: compared with wt RT
Protocol: as §3

p66/p51 HIV-1 RT = p66/p51 HIV-1 RT (Human immunodeficiency virus type 1 group M subtype B, UniProt P04585); assay type: binding; settings: increasing concentration of compound; 100 ng/µl HIV-1 RT
[7] = target: Y188A RT (RNase H function) (Human immunodeficiency virus type 1 group M subtype B, UniProt P04585, Y775A); assay: RNase H activity of Y188A mutated RT; assay type: biochemical, HIV-1; settings: compared with wt RT
Protocol: as §2

[8] = Interaction between Mg2+ and HIV-1 RT inhibitors (UV-Vis spectra with MgCl2); assay type: physicochemical; settings: 100 µM compound, MgCl2 up to 1.25 mM
Protocol: The effects of the magnesium ions were evaluated by mean of spectrophotometric method as reported, using a Ultrospec 2100 pro UV-Vis spectrophotometer (Amersham Biosciences) and Hellma quartz cuvette with 1 cm optical path. […]. Each studied compound was dissolved in DMSO to a final concentration of 10 mM and diluted in milliQ water to a final concentration of 100 µM. Each obtained solution was placed in a cuvette and the UV-Vis and the spectra were recorded between 200 and 700 nm using water milliQ (with a percentage of DMSO equal to the one present in the sample solution) as reference. Thereafter, small volumes of MgCl2 aqueous solution were added both in the sample and in the reference cuvettes to obtain a series of solutions containing increasing concentrations of MgCl2, up to 1.25 mM, carefully pipetting to mix, and the UV-Vis spectra were repeated. Each experiment was performed in triplicate.

[9] = target: V108F RT (RNase H function) (Human immunodeficiency virus type 1 group M subtype B, UniProt P04585, V695F); assay: RNase H activity of V108F mutated RT; assay type: biochemical, HIV-1; settings: compared with wt RT
Protocol: as §2

[10] = target: W229A RT (RNase H function) (Human immunodeficiency virus type 1 group M subtype B, UniProt P04585, W816A); assay: RNase H activity of W229A mutated RT; assay type: biochemical, HIV-1; settings: compared with wt RT
Protocol: as §2

Y188A RT (RDDP function) = Y188A RT (RDDP function) (Human immunodeficiency virus type 1 group M subtype B, UniProt P04585, Y775A); assay: RDDP activity of Y188A mutated RT; assay type: biochemical, HIV-1
Protocol: as §3

V108F RT (RDDP function) = V108F RT (RDDP function) (Human immunodeficiency virus type 1 group M subtype B, UniProt P04585, V695F); assay: RDDP activity of V108F mutated RT; assay type: biochemical, HIV-1
Protocol: as §3

W229A RT (RDDP function) = W229A RT (RDDP function) (Human immunodeficiency virus type 1 group M subtype B, UniProt P04585, W816A); assay: RDDP activity of W229A mutated RT; assay type: biochemical, HIV-1; settings: compared with wt RT
Protocol: as §3

[11] = target: A502F RT (RNase H function) (Human immunodeficiency virus type 1 group M subtype B, UniProt P04585, A1089F); assay: RNase H activity of A502F mutated RT; assay type: biochemical, HIV-1
Protocol: as §2

[12] = wt RT, read-out: IC50, HIV-1 RT-associated RNase H activity

In the case of `O=C(Nc1sc2c(c1C(=O)Nc1ccccn1)CCCCC2)c1ccc(O)c(O)c1` [Compound 1], the IC50 [1] is listed as 0.84 µM and the “weaker potency against the polymerase activity with respect to RNase H activity” value [2] is listed as 20 fold.
For `Nc1sc2c(c1C(=O)Nc1ccc(Cl)cc1)CCCCC2` [Compound 5], the IC50 [3, 12] was 16.5 µM.
Compound `NC(=O)c1c(NC(=O)c2ccc(O)c(O)c2)sc2c1CCCCC2` [Compound 6, 2-[(3,4-Dihydroxybenzoyl)amino]-5,6,7,8-tetrahydro-4H-cyclohepta[b]thiophene-3-carboxamide] has an IC50 [3, 12] of 2.6 µM.
Compound `COc1ccccc1C(=O)Nc1sc2c(c1C(N)=O)CCCCC2` [Compound 7, 2-[(2-Methoxybenzoyl)amino]-5,6,7,8-tetrahydro-4H-cyclohepta[b]thiophene-3-carboxamide] has an IC50 [3, 12] of 14 µM.
`O=c1oc(-c2ccc(O)c(O)c2)nc2sc3c(c12)CCCCC3` [Compound 10, 2–(3,4-Dihydroxyphenyl)-6,7,8,9-tetrahydro-4H,5H-cyclohepta[4,5]thieno[2,3-d][1,3]oxazin-4-one] gave an IC50 ([3]; compound added after the RNA:DNA duplex substrate, read-out: IC50, RNase H activity, compound added after the RNA:DNA duplex substrate) of 11 µM, an IC50 [3, 12] of 1.1 µM and a CC50 [4] of 27 to 300 µM.
`O=c1oc(-c2ccccc2O)nc2sc3c(c12)CCCCC3` [Compound 12, 2–(2-Hydroxyphenyl)-6,7,8,9-tetrahydro-4H,5H-cyclohepta[4,5]thieno[2,3-d][1,3]oxazin-4-one] gave an IC50 [3, 12] of 18.2 µM.
`O=c1oc(-c2ccc(O)c(O)c2)nc2sc3c(c12)CCCC3` [Compound 20, 2–(3,4-Dihydroxyphenyl)-5,6,7,8-tetrahydro-4H-[1]benzothieno[2,3-d][1,3]oxazin-4-one] gave an IC50 [3, 12] of 3.35 µM and a CC50 [4] of 27 to 300 µM.
With `O=c1oc(-c2ccc(O)c(O)c2)nc2sc3c(c12)CCC3` [Compound 21, 2–(3,4-Dihydroxyphenyl)-6,7-dihydro-4H,5H-cyclopenta[4,5]thieno[2,3-d][1,3]oxazin-4-one] the IC50 [3, 12] was 1 µM and the CC50 [4] was 27 to 300 µM.
With `O=c1oc(-c2ccc(O)c(O)c2)nc2sc3ccccc3c12` [Compound 22, 2–(3,4-Dihydroxyphenyl)-4H-[1]benzothieno[2,3-d][1,3]oxazin-4-one] the IC50 [5] was 2.9 µM, the “Yonetani-Theorell: combined RDDP inhibition with EFV” value [6] was “kinetically mutually exclusive” and the “effect of A502F substitution on inhibition of RDDP” value (A502F RT (RDDP function)) was “not significantly affecting”. For the same compound, the IC50 [3, 12] was 0.53 µM, the “change of RT melting temperature (Tm)” value (p66/p51 HIV-1 RT) was “dose-dependent increase in the RT Tm” and the “effect of Y188A substitution on inhibition of RNase H” value [7] was “no significant effect”. For the same compound, the “magnesium complexation (UV-Vis spectra)” value [8] was “did not show any shift in the maximum of absorbance; also recorded: unable to chelate Mg^2+ ions”, the “effect of V108F substitution on inhibition of RNase H” value [9] was “no significant effect” and the “effect of W229A substitution on inhibition of RNase H” value [10] was “did not significantly affect”. It also gave a CC50 [4] of 27 to 300 µM, an IC50 (Y188A RT (RDDP function)) of 9.64 µM and an IC50 (V108F RT (RDDP function)) of 10.6 µM. The “effect of W229A substitution on inhibition of RDDP” value (W229A RT (RDDP function)) was “did not significantly affect” and the IC50 [11] was > 100 µM.
In the case of `O=c1oc(-c2ccc(O)c(O)c2)nc2c3c(sc12)CCCCC3` [Compound 23, 2–(3,4-Dihydroxyphenyl)-7,8,9,10-tetrahydrocyclohepta[4,5]thieno[3,2-d][1,3]oxazin-4(6H)-one], the CC50 [4] is reported as 27 to 300 µM.
For `O=c1oc(-c2ccc(O)c(O)c2)nc2c1sc1ccccc12` [Compound 24, 2–(3,4-Dihydroxyphenyl)-4H-[1]benzothieno[3,2-d][1,3]oxazin-4-one], the IC50 [5] was 14.6 µM, the IC50 [3, 12] was 0.96 µM and the “change of RT melting temperature (Tm)” value (p66/p51 HIV-1 RT) was “dose-dependent increase in the RT Tm”. For the same compound, the “magnesium complexation (UV-Vis spectra)” value [8] was “did not show any shift in the maximum of absorbance; also recorded: unable to chelate Mg^2+ ions” and the CC50 [4] was 27 to 300 µM.
With `O=c1oc(-c2ccc(O)c(O)c2)nc2c1CCCCC2` [Compound 25, 2–(3,4-Dihydroxyphenyl)-6,7,8,9-tetrahydrocyclohepta[d][1,3]oxazin-4(5H)-one] the CC50 [4] was 27 to 300 µM.
With `O=c1oc(-c2ccc(O)c(O)c2)nc2ccccc12` [Compound 26, 2–(3,4-Dihydroxyphenyl)-4H-3,1-benzoxazin-4-one] the CC50 [4] was 27 to 300 µM.
For `O=c1[nH]c(-c2ccc(O)c(O)c2)nc2ccccc12` [Compound 27, 2–(3,4-Dihydroxyphenyl)quinazolin-4(3H)-one], the CC50 [4] was 27 to 300 µM.
